Key:
Test in all cases: relative viability (nuclei count vs DMSO), 5 days (fraction); higher = more cells survive
ABC-1 = test system: ABC-1
Method in brief: (§1)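 Medians of duplicate plates are given as relative viability. That measure is the nuclei count in treated wells divided by the count in vehicle wells. Counts were taken on 4× images of lung cancer cell lines in 1536-well plates, 5 days after pin-tool dosing the day after seeding with one drug alone or a fixed anchor-drug dose plus five library-drug doses (not always all listed) in √10 steps.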

CAL-12T = test system: CAL-12T
Method in brief: as §1

COR-L23 = test system: COR-L23
Method in brief: as §1

EMC-BAC-2 = test system: EMC-BAC-2
Method in brief: as §1

HARA = test system: HARA
Method in brief: as §1

HCC-366 = test system: HCC-366
Method in brief: as §1

HOP-62 = test system: HOP-62
Method in brief: as §1

LK-2 = test system: LK-2
Method in brief: as §1

NCI-H1437 = test system: NCI-H1437
Method in brief: as §1

NCI-H1650 = test system: NCI-H1650
Method in brief: as §1

NCI-H1651 = test system: NCI-H1651
Method in brief: as §1

NCI-H1734 = test system: NCI-H1734
Method in brief: as §1

NCI-H1755 = test system: NCI-H1755
Method in brief: as §1

NCI-H2347 = test system: NCI-H2347
Method in brief: as §1

NCI-H3122 = test system: NCI-H3122
Method in brief: as §1

NCI-H441 = test system: NCI-H441
Method in brief: as §1

NCI-H596 = test system: NCI-H596
Method in brief: as §1

NCI-H727 = test system: NCI-H727
Method in brief: as §1

PC-3 [JPC-3] = test system: PC-3 [JPC-3]
Method in brief: as §1

RERF-LC-KJ = test system: RERF-LC-KJ
Method in brief: as §1

SK-LU-1 = test system: SK-LU-1
Method in brief: as §1

UMC-11 = test system: UMC-11
Method in brief: as §1

SMILES: CCNC(=O)c1noc(-c2cc(C(C)C)c(O)cc2O)c1-c1ccc(CN2CCOCC2)cc1 [Luminespib] + Cc1cc(Nc2cc(N3CCN(C)CC3)nc(Sc3ccc(NC(=O)C4CC4)cc3)n2)n[nH]1 [Tozasertib] (partner 0.1 µM)
- relative viability (ABC-1; first compound 0.002 µM): 0.196
- relative viability (ABC-1; first compound 0.006325 µM): 0.21
- relative viability (ABC-1; first compound 0.02 µM): 0.139
- relative viability (ABC-1; first compound 0.06325 µM): 0.173
- relative viability (ABC-1; first compound 0.2 µM): 0.14
- relative viability (CAL-12T; first compound 0.002 µM): 0.361
- relative viability (CAL-12T; first compound 0.006325 µM): 0.319
- relative viability (CAL-12T; first compound 0.02 µM): 0.211
- relative viability (CAL-12T; first compound 0.06325 µM): 0.113
- relative viability (CAL-12T; first compound 0.2 µM): 0.107
- relative viability (COR-L23; first compound 0.002 µM): 0.237
- relative viability (COR-L23; first compound 0.006325 µM): 0.192
- relative viability (COR-L23; first compound 0.02 µM): 0.272
- relative viability (COR-L23; first compound 0.06325 µM): 0.0698
- relative viability (COR-L23; first compound 0.2 µM): 0.0682
- relative viability (EMC-BAC-2; first compound 0.002 µM): 0.345
- relative viability (EMC-BAC-2; first compound 0.006325 µM): 0.261
- relative viability (EMC-BAC-2; first compound 0.02 µM): 0.28
- relative viability (EMC-BAC-2; first compound 0.06325 µM): 0.342
- relative viability (EMC-BAC-2; first compound 0.2 µM): 0.299
- relative viability (HARA; first compound 0.002 µM): 0.158
- relative viability (HARA; first compound 0.006325 µM): 0.103
- relative viability (HARA; first compound 0.02 µM): 0.106
- relative viability (HARA; first compound 0.06325 µM): 0.172
- relative viability (HARA; first compound 0.2 µM): 0.339
- relative viability (HCC-366; first compound 0.002 µM): 0.13
- relative viability (HCC-366; first compound 0.006325 µM): 0.105
- relative viability (HCC-366; first compound 0.02 µM): 0.108
- relative viability (HCC-366; first compound 0.06325 µM): 0.228
- relative viability (HCC-366; first compound 0.2 µM): 0.0502
- relative viability (HOP-62; first compound 0.002 µM): 0.363
- relative viability (HOP-62; first compound 0.006325 µM): 0.352
- relative viability (HOP-62; first compound 0.02 µM): 0.403
- relative viability (HOP-62; first compound 0.06325 µM): 0.389
- relative viability (HOP-62; first compound 0.2 µM): 0.232
- relative viability (LK-2; first compound 0.002 µM): 0.184
- relative viability (LK-2; first compound 0.006325 µM): 0.194
- relative viability (LK-2; first compound 0.02 µM): 0.154
- relative viability (LK-2; first compound 0.06325 µM): 0.208
- relative viability (LK-2; first compound 0.2 µM): 0.182
- relative viability (NCI-H1437; first compound 0.002 µM): 0.385
- relative viability (NCI-H1437; first compound 0.006325 µM): 0.359
- relative viability (NCI-H1437; first compound 0.02 µM): 0.497
- relative viability (NCI-H1437; first compound 0.06325 µM): 0.508
- relative viability (NCI-H1437; first compound 0.2 µM): 0.238
- relative viability (NCI-H1650; first compound 0.002 µM): 0.412
- relative viability (NCI-H1650; first compound 0.006325 µM): 0.455
- relative viability (NCI-H1650; first compound 0.02 µM): 0.168
- relative viability (NCI-H1650; first compound 0.06325 µM): 0.153
- relative viability (NCI-H1650; first compound 0.2 µM): 0.145
- relative viability (NCI-H1651; first compound 0.002 µM): 0.812
- relative viability (NCI-H1651; first compound 0.006325 µM): 0.577
- relative viability (NCI-H1651; first compound 0.02 µM): 0.611
- relative viability (NCI-H1651; first compound 0.06325 µM): 0.313
- relative viability (NCI-H1651; first compound 0.2 µM): 0.154
- relative viability (NCI-H1734; first compound 0.002 µM): 0.248
- relative viability (NCI-H1734; first compound 0.006325 µM): 0.254
- relative viability (NCI-H1734; first compound 0.02 µM): 0.252
- relative viability (NCI-H1734; first compound 0.06325 µM): 0.143
- relative viability (NCI-H1734; first compound 0.2 µM): 0.154
- relative viability (NCI-H1755; first compound 0.002 µM): 0.585
- relative viability (NCI-H1755; first compound 0.006325 µM): 0.592
- relative viability (NCI-H1755; first compound 0.02 µM): 0.646
- relative viability (NCI-H1755; first compound 0.06325 µM): 0.214
- relative viability (NCI-H1755; first compound 0.2 µM): 0.192
- relative viability (NCI-H2347; first compound 0.002 µM): 0.592
- relative viability (NCI-H2347; first compound 0.006325 µM): 0.407
- relative viability (NCI-H2347; first compound 0.02 µM): 0.471
- relative viability (NCI-H2347; first compound 0.06325 µM): 0.269
- relative viability (NCI-H2347; first compound 0.2 µM): 0.198
- relative viability (NCI-H3122; first compound 0.002 µM): 0.451
- relative viability (NCI-H3122; first compound 0.006325 µM): 0.39
- relative viability (NCI-H3122; first compound 0.02 µM): 0.106
- relative viability (NCI-H3122; first compound 0.06325 µM): 0.0834
- relative viability (NCI-H3122; first compound 0.2 µM): 0.0832
- relative viability (NCI-H441; first compound 0.002 µM): 0.671
- relative viability (NCI-H441; first compound 0.006325 µM): 0.507
- relative viability (NCI-H441; first compound 0.02 µM): 0.647
- relative viability (NCI-H441; first compound 0.06325 µM): 0.186
- relative viability (NCI-H441; first compound 0.2 µM): 0.148
- relative viability (NCI-H596; first compound 0.002 µM): 0.959
- relative viability (NCI-H596; first compound 0.006325 µM): 1.01
- relative viability (NCI-H596; first compound 0.02 µM): 0.804
- relative viability (NCI-H596; first compound 0.06325 µM): 0.876
- relative viability (NCI-H596; first compound 0.2 µM): 0.657
- relative viability (NCI-H727; first compound 0.002 µM): 0.61
- relative viability (NCI-H727; first compound 0.006325 µM): 0.614
- relative viability (NCI-H727; first compound 0.02 µM): 0.505
- relative viability (NCI-H727; first compound 0.06325 µM): 0.314
- relative viability (NCI-H727; first compound 0.2 µM): 0.291
- relative viability (PC-3 [JPC-3]; first compound 0.002 µM): 0.892
- relative viability (PC-3 [JPC-3]; first compound 0.006325 µM): 0.845
- relative viability (PC-3 [JPC-3]; first compound 0.02 µM): 0.801
- relative viability (PC-3 [JPC-3]; first compound 0.06325 µM): 0.656
- relative viability (PC-3 [JPC-3]; first compound 0.2 µM): 0.375
- relative viability (RERF-LC-KJ; first compound 0.002 µM): 0.558
- relative viability (RERF-LC-KJ; first compound 0.006325 µM): 0.501
- relative viability (RERF-LC-KJ; first compound 0.02 µM): 0.518
- relative viability (RERF-LC-KJ; first compound 0.06325 µM): 0.211
- relative viability (RERF-LC-KJ; first compound 0.2 µM): 0.208
- relative viability (SK-LU-1; first compound 0.002 µM): 0.373
- relative viability (SK-LU-1; first compound 0.006325 µM): 0.313
- relative viability (SK-LU-1; first compound 0.02 µM): 0.292
- relative viability (SK-LU-1; first compound 0.06325 µM): 0.122
- relative viability (SK-LU-1; first compound 0.2 µM): 0.114
- relative viability (UMC-11; first compound 0.002 µM): 0.211
- relative viability (UMC-11; first compound 0.006325 µM): 0.191
- relative viability (UMC-11; first compound 0.02 µM): 0.194
- relative viability (UMC-11; first compound 0.06325 µM): 0.242
- relative viability (UMC-11; first compound 0.2 µM): 0.196

— the supplement of paper PMC10307832
